System: Male Balb/c mice
Experiment: Intraperitoneal Glucose Tolerance Test (IPGTT)
Assay type: in vivo, mouse
Settings: for glucose levels: positive control 10 mg/kg
Procedure: To examine the ability of exemplified compounds to activate GPR40 in-vivo resulting in anti-diabetic efficacy, i.e. an increase in insulin and reduction in glucose levels, a 4-day intraperitoneal glucose tolerance test (ipGTT) study is completed with each compound.
Male Balb/c (Albino mice) mice (8-9 weeks of age) are single housed and fed with normal rodent chow diet and water ad libitum. Animals are weighed and randomized by body weight and daily body weights are recorded. Upon study initiation, animals are dosed once per day orally for three days using a formulation carrying methylcellulose and tween-80. On the night before the 4-day IPGTT study, animals are fasted overnight in clean cages. On the morning of the IPGTT (Day 4), animals are dosed orally with compound or vehicle alone 60 minutes prior to the IPGTT (glucose 2 g/kg, i.p.). Blood glucose levels are determined from tail bleeds taken at 0, 3, 7, 15, 30, and 60 min after glucose challenge. Plasma is isolated and used to estimate respective insulin levels. The blood glucose excursion profile from t=0 to t=60 min is used to integrate an area under the curve (AUC) for each treatment. Percent lowering in glucose is calculated from the AUC data of the compounds with respect to the AUC of vehicle group. The test compound is orally administered at 0.03, 0.1, 0.3, 1.0, or 3.0 mg/kg, and a positive control is administered at 10 mg/kg. […] The ED50 for the compound of Example 1 based on AUCs for glucose lowering is 0.09 mg/kg. […] The results of this assay support the compound's activation of GPR-40, with resulting in vivo anti-diabetic efficacy.

## CC#C[C@@H](CC(=O)O)c1ccc(OCc2ccc(CN3CCC4(C=Cc5ccccc54)CC3)cc2)cc1 [Example 1, (3S)-3-(4-{[4-(1′H-Spiro[indene-1,4′-piperidin]-1′-ylmethyl)benzyl]oxy}phenyl)hex-4-ynoic acid]
3 minute time point, 1.0 and 3.0 mg/kg oral
  insulin levels: significantly elevated
3 minute time point, Example 1 0.03-3.0 mg/kg oral
  glucose levels: No concentration of the compound of Example 1 or the positive control significantly lowered
7 minute time point, Example 1 0.3, 1.0, and 3.0 mg/kg oral
  glucose levels: significantly lowered
15 minute time point, Example 1 0.1, 0.3, 1.0, and 3.0 mg/kg oral
  glucose levels: significantly lowered
30 minute time point, all doses of Example 1 (0.03-3.0 mg/kg oral)
  glucose levels: significantly lowered
60 minute time point, all doses of Example 1 (0.03-3.0 mg/kg oral)
  glucose levels: significantly lowered
Mus musculus, oral, once per day, 4-day, glucose 2 g/kg i.p., AUC t=0 to 60 min, read-out: ED50 based on AUCs for glucose lowering
  ED50: 0.09 mg/kg

Reference: US8383642B2, “Spiropiperidine compounds” (Eli Lilly and Company, priority 2009, dated 2013)
